Read-outs that look alike come from different tables or passages of the source.
Assays:
[1] = target: T1, ChT-L activity of the 26S proteasome (Homo sapiens, UniProt P28074); experiment: Proteasome inhibition after pre-incubation with newborn bovine serum; type: in vitro ADME; details: pre-incubation 1 hour at 37° C. with NBS
T1 sequence (P28074 60-263): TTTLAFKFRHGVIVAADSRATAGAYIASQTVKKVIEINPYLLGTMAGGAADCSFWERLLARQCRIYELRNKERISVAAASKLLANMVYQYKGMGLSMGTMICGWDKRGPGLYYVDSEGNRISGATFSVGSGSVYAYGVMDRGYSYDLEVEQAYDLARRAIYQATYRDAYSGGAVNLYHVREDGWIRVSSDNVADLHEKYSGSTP
Method: EDTA chelates divalent metal ions. By including EDTA during the pre-incubation step, EDTA protected compound 8 from being deactivated by NBS, shown by low proteasome activity below 5 nM of compound 8.
The assays were performed in biological triplicate, and the data points are reported with the corresponding standard deviations.

[2] = target: T2, yeast proteasome yβ2 subunit (Saccharomyces cerevisiae, UniProt P25043+P25451); experiment: Subunit selectivity, purified yeast proteasome yβ2; type: biochemical
T2 construct: measured using 8 μg/mL of purified yCP or iCP
Method: (§1) The compounds were diluted with lysis buffer; 10 μL of the compound-containing solution was added to the test wells at ten times the final concentration. […] The results are reported as the average of at least 3 technical replicates of IC50 values for proteasome inhibition.
Values and standard deviations were calculated from an assay performed in biological triplicate.

RPMI 8226 cells = experiment: MTT assay cytotoxicity RPMI 8226; details: Homo sapiens
Method: The cells were incubated at 37° C. in a humidified atmosphere with 5% CO2.
100 μL of cells were added to each well of a 96 well microtiter plate at a concentration of 4×10^4 cells/mL and incubated overnight to allow proper adhesion. (RPMI 8226 cells were plated at 4×10^5 cells/mL). The cells were treated with the panel of test compounds at a series of concentrations, along with vehicle control DMSO and untreated cells as controls. After 48 h incubation, 20 μL of MTT reagent (3-(4,5-dimethylthiazol-2-yl)-2,5-diphenyltetrazolium bromide) in PBS (5 mg/mL) was added to each well of the plates. The plate was incubated for 2 h at 37° C. For adherent cell lines, the media was removed from each well of the plate and the resulting formazan crystals dissolved in 100 μL of DMSO. For RPMI 8226 cells, 200 ul of DMF/SDS mix (50% DMF. 10% w/v SDS pH<4) was used to solubilize the formazan crystals. Optical density (OD) at 490 nm was measured using a microplate reader. Cells treated with 1 μM phenyl arsine oxide (PAO) served as a positive cell-killing control. Technical replicates of these assays were performed in biological quadruplicate, and the three best values were used for analysis in order to eliminate outliers. Data presented are the average IC50 value calculated from at least 3 technical replicates with the corresponding standard deviation.

[3] = target: T3, trypsin-like activity of the 26S proteasome (Homo sapiens, UniProt Q99436); experiment: Proteasome assay, trypsin-like (T-L) activity, SUC-RLR-AMC, Jurkat cell lysate; type: biochemical; details: Table 2, P1 analogues; ± S.D.; read-out: Proteasome Inhibition T-L-like IC50
T3 construct: endogenous in cells; host or cells: Jurkat (ATCC TIB-152, E6-1 clone) cell lysate
T3 sequence (Q99436 44-277): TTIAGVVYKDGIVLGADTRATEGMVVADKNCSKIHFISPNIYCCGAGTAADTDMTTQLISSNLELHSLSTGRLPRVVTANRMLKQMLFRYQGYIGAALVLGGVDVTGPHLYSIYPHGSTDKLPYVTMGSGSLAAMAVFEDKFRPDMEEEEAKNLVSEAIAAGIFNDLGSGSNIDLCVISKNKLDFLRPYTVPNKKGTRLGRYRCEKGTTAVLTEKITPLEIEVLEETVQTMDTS
Method: The lysate was stored at −80° C. until the sample was used for the proteasome assay.
as §1

Compound: CC[C@H](C)[C@@H]1C(=O)O[C@H]1C(=O)N[C@H](C(=O)N[C@H](C(=O)OCc1ccccc1)C(C)C)C(C)C [Compound 8, Benzyl ((2R,3S)-3-((S)-sec-butyl)-4-oxooxetane-2-carbonyl)-L-valyl-L-valinate]
- deactivation by newborn bovine serum [1]: deactivates compound 8
- IC50 [2]: 26100 ± 2380 nM
- IC50 (RPMI 8226 cells; RPMI-8226, 48 h, read-out: Cytotoxicity RPMI 8226 IC50): 201 ± 82 nM
- IC50 (RPMI 8226 cells; RPMI-8226, read-out: Cytotoxicity RPMI 8226 IC50): 192 ± 32.3 nM
- IC50 [3]: 1520 ± 788 nM

Reference: patent US11396497B2, “Proteasome inhibitors” (New Mexico Tech University Research Park Corporation, priority 2018, dated 2022)
